# Organism: Rattus norvegicus
# Test: DrugMatrix - Regimen: Daily Repeat
# Format: toxicity, organism-based, Sprague-Dawley
# Design: regimen Daily Repeat, gender Male, age 6-8 weeks
# Conditions: in vivo, po, route oral GAVAGE, […]; for ABSOLUTE BASOPHIL / BASOPHIL / NUCLEATED RED BLOOD CELLS / ABSOLUTE EOSINOPHIL / ABSOLUTE LYMPHOCYTE / ABSOLUTE MONOCYTE / ABSOLUTE SEGMENTED NEUTROPHIL / EOSINOPHIL / ERYTHROCYTE COUNT / HEMATOCRIT / HEMOGLOBIN / LEUKOCYTE COUNT / LYMPHOCYTE / MEAN CORPUSCULAR HEMOGLOBIN / MEAN CORPUSCULAR VOLUME / MONOCYTE / NEUTROPHIL / PLATELET COUNT: tissue Blood; for ALANINE AMINOTRANSFERASE / ALBUMIN / ALKALINE PHOSPHATASE / ASPARTATE AMINOTRANSFERASE / BLOOD UREA NITROGEN / CARBON DIOXIDE / CHLORIDE / CHOLESTEROL / CREATINE PHOSPHOKINASE / CREATININE / GLUCOSE / LACTATE DEHYDROGENASE / LIPASE / PHOSPHORUS / SODIUM / TOTAL BILIRUBIN / TOTAL PROTEIN / URIC ACID: tissue Plasma
# [1] = 0 mg/kg, 72 h, dose level Control, time 3 day
# [2] = 0 mg/kg, 120 h, dose level Control, time 5 day
# [3] = 25 mg/kg, 72 h, dose level Low, time 3 day
# [4] = 25 mg/kg, 120 h, dose level Low, time 5 day
compound,measurement,setting,value
CC(=O)N1CCN(c2ccc(OCC3COC(Cn4ccnc4)(c4ccc(Cl)cc4Cl)O3)cc2)CC1 (configuration not stated) [KETOCONAZOLE],ABSOLUTE BASOPHIL,[1],0 CELLS/uL
same,BASOPHIL,[1],0%
same,NUCLEATED RED BLOOD CELLS,[1],0 /100WBC
same,ABSOLUTE BASOPHIL,[2],0 CELLS/uL
same,BASOPHIL,[2],0%
same,ABSOLUTE BASOPHIL,[3],0 CELLS/uL
same,ABSOLUTE EOSINOPHIL,[3],0 CELLS/uL
same,ABSOLUTE LYMPHOCYTE,[3],6183 CELLS/uL
same,ABSOLUTE MONOCYTE,[3],155.33 CELLS/uL
same,ABSOLUTE SEGMENTED NEUTROPHIL,[3],695 CELLS/uL
same,BASOPHIL,[3],0%
same,EOSINOPHIL,[3],0%
same,ERYTHROCYTE COUNT,[3],5.13 x10E6/uL
same,HEMATOCRIT,[3],33.13%
same,HEMOGLOBIN,[3],12.97 G/DL
same,LEUKOCYTE COUNT,[3],7.03 x10E3/uL
same,LYMPHOCYTE,[3],87.67%
same,MEAN CORPUSCULAR HEMOGLOBIN,[3],25.3 pg
same,MEAN CORPUSCULAR VOLUME,[3],64.73 fL
same,MONOCYTE,[3],2%
same,NEUTROPHIL,[3],10.33%
same,NUCLEATED RED BLOOD CELLS,[3],0 /100WBC
same,PLATELET COUNT,[3],1118 x10E3/uL
same,ALANINE AMINOTRANSFERASE,[3],90.33 u/L
same,ALBUMIN,[3],3.83 G/DL
same,ALKALINE PHOSPHATASE,[3],423.67 u/L
same,ASPARTATE AMINOTRANSFERASE,[3],89.33 u/L
same,BLOOD UREA NITROGEN,[3],12.67 mg/dL
same,CARBON DIOXIDE,[3],39 mmol/L
same,CHLORIDE,[3],95.33 MEQ/L
same,CHOLESTEROL,[3],74 mg/dL
same,CREATINE PHOSPHOKINASE,[3],308.67 u/L
same,CREATININE,[3],0.15 mg/dL
same,GLUCOSE,[3],163.33 mg/dL
same,LACTATE DEHYDROGENASE,[3],69.33 u/L
same,LIPASE,[3],10 u/L
same,PHOSPHORUS,[3],9.63 mg/dL
same,SODIUM,[3],136.67 MEQ/L
same,TOTAL BILIRUBIN,[3],0.13 mg/dL
same,TOTAL PROTEIN,[3],5.53 G/DL
same,URIC ACID,[3],0.43 mg/dL
same,ABSOLUTE BASOPHIL,[4],0 CELLS/uL
same,ABSOLUTE EOSINOPHIL,[4],0 CELLS/uL
same,ABSOLUTE LYMPHOCYTE,[4],8189 CELLS/uL
same,ABSOLUTE MONOCYTE,[4],181 CELLS/uL
same,ABSOLUTE SEGMENTED NEUTROPHIL,[4],1063.33 CELLS/uL
same,BASOPHIL,[4],0%
same,EOSINOPHIL,[4],0%
same,ERYTHROCYTE COUNT,[4],5.6 x10E6/uL
same,HEMATOCRIT,[4],34.17%
same,HEMOGLOBIN,[4],13.47 G/DL
same,LEUKOCYTE COUNT,[4],9.43 x10E3/uL
same,LYMPHOCYTE,[4],86.67%
same,MEAN CORPUSCULAR HEMOGLOBIN,[4],24.07 pg
same,MEAN CORPUSCULAR VOLUME,[4],61.1 fL
same,MONOCYTE,[4],2%
same,NEUTROPHIL,[4],11.33%
same,NUCLEATED RED BLOOD CELLS,[4],0 /100WBC
same,PLATELET COUNT,[4],903 x10E3/uL
same,ALANINE AMINOTRANSFERASE,[4],74 u/L
same,ALBUMIN,[4],4.17 G/DL
same,ALKALINE PHOSPHATASE,[4],365.33 u/L
same,ASPARTATE AMINOTRANSFERASE,[4],92.33 u/L
same,BLOOD UREA NITROGEN,[4],11.33 mg/dL
same,CARBON DIOXIDE,[4],29.33 mmol/L
same,CHLORIDE,[4],103.67 MEQ/L
same,CHOLESTEROL,[4],75 mg/dL
same,CREATINE PHOSPHOKINASE,[4],400.67 u/L
same,CREATININE,[4],0.26 mg/dL
same,GLUCOSE,[4],155 mg/dL
same,LACTATE DEHYDROGENASE,[4],99.67 u/L
same,LIPASE,[4],11.67 u/L
same,PHOSPHORUS,[4],11.1 mg/dL
same,SODIUM,[4],144.93 MEQ/L
same,TOTAL BILIRUBIN,[4],0.2 mg/dL
same,TOTAL PROTEIN,[4],5.93 G/DL
same,URIC ACID,[4],0.8 mg/dL

# Source: ChEMBL document CHEMBL3885881, “DrugMatrix”
